Assay results published in the supplement of paper PMC11208160.

Assay: recombinant barcode read abundance after kanamycin selection (control-corrected) (log10(CPM+1)); higher = more efficient recombination; sequences stand for … in AGTGCAGAGAAAATCGGCCAGTTTTCTCTGCCTGCAGTCCGCATGCCGT…AGATTTATGCAGCGGACTGCCTTTCTCCCAAAGTGATAAACCGGACAGTATCATGGACCGGTTTTCCCGGTAATCCGTATTTGCAAGGTTGGTTTCACT; site = the 11-nt target
How it was run: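 Reported as log10(CPM+1), each value stands for recombination efficiency. That efficiency is the averaged, control-corrected counts per million of barcodes found at recombinant junctions. Cells from a pooled E. coli library pairing targets with IS621 bridge RNA target-binding loops were plated twice on chloramphenicol/ampicillin LB agar (control) and twice on chloramphenicol/ampicillin/kanamycin with 0.1 mM IPTG.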
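Also: IS621 recombinase and bridge RNA in Escherichia coli cells.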

With “CCTGGCACTTGGGTTCTAACCTGTTGCGA (site CCTGGCACTTC)” as the sequence, how does the “recombinant barcode read abundance (log10)” value read?
The value was 2.37.

With “CCTGGCACTTGGGTTCTAACCTGTTGCGA (site CCTTGCACTTC)” as the sequence, how does the “recombinant barcode read abundance (log10)” value read?
Its value is 0.0559.

For “CCTGGGCCTTGGGTTCTAACCTGTTGCTT (site CCTGGACCTAC)”, which “recombinant barcode read abundance (log10)” value is on record?
Its value is 0.471.

Which “recombinant barcode read abundance (log10)” value does the source give for “CCTGGGCCTTGGGTTCTAACCTGTTGCTT (site CCTGGGCCTAA)” here?
Its value is 0.686.

For “CCTGGGGCTTGGGTTCTAACCTGTTGCCT (site CCTGGGGCTAG)”, which “recombinant barcode read abundance (log10)” value is on record?
Its value is 0.233.

Which “recombinant barcode read abundance (log10)” value does the source give for “CCTGGGGCTTGGGTTCTAACCTGTTGCCT (site CCTGGTCCTAG)” here?
The value was 0.189.

Which “recombinant barcode read abundance (log10)” value does the source give for “CCTGTATCTTGGGTTCTAACCTGTTGCCT (site ACTGTATCTAG)” here?
The value was 0.0208.

Which “recombinant barcode read abundance (log10)” value does the source give for “CCTGTATCTTGGGTTCTAACCTGTTGCCT (site CCTGTATCTAG)” here?
The value was 0.127.

With “CCTGTATCTTGGGTTCTAACCTGTTGCCT (site GCTGTATCTAG)” as the sequence, how does the “recombinant barcode read abundance (log10)” value read?
The value was 0.26.

For “CCTGTATCTTGGGTTCTAACCTGTTGCCT (site TCTGTATCTAG)”, which “recombinant barcode read abundance (log10)” value is on record?
Its value is 0.039.

With “CCTTACACTTGGGTTCTAACCTGTTGCGG (site CCTGACACTCC)” as the sequence, how does the “recombinant barcode read abundance (log10)” value read?
Its value is 0.063.

With “CCTTACACTTGGGTTCTAACCTGTTGCGG (site CCTTACACTCC)” as the sequence, how does the “recombinant barcode read abundance (log10)” value read?
Its value is 2.53.

With “CCTTACCCTTGGGTTCTAACCTGTTGCCT (site CCTTACCCTAG)” as the sequence, how does the “recombinant barcode read abundance (log10)” value read?
The value was 1.11.

With “CCTTACCCTTGGGTTCTAACCTGTTGCCT (site CCTTAGCCTAG)” as the sequence, how does the “recombinant barcode read abundance (log10)” value read?
The value was 0.0606.

With “CCTTCTCCTTGGGTTCTAACCTGTTGCAT (site CCTTCTCCTAT)” as the sequence, how does the “recombinant barcode read abundance (log10)” value read?
Its value is 0.319.

For “CCTTCTCCTTGGGTTCTAACCTGTTGCAT (site GTACGATCTCC)”, which “recombinant barcode read abundance (log10)” value is on record?
The value was 0.146.

For “CCTTGCACTTGGGTTCTAACCTGTTGCGA (site CCTAGCACTTC)”, which “recombinant barcode read abundance (log10)” value is on record?
Its value is 0.0223.

Which “recombinant barcode read abundance (log10)” value does the source give for “CCTTGCACTTGGGTTCTAACCTGTTGCGA (site CCTCGCACTTC)” here?
The value was 0.0306.

With “CCTTGCACTTGGGTTCTAACCTGTTGCGA (site CCTGGCACTTC)” as the sequence, how does the “recombinant barcode read abundance (log10)” value read?
Its value is 0.0155.

For “CCTTGCACTTGGGTTCTAACCTGTTGCGA (site CCTTGCACTTC)”, which “recombinant barcode read abundance (log10)” value is on record?
Its value is 0.409.

With “CCTTGGGCTTGGGTTCTAACCTGTTGCTT (site CCTTGGGCTAA)” as the sequence, how does the “recombinant barcode read abundance (log10)” value read?
Its value is 0.011.

For “CCTTGGGCTTGGGTTCTAACCTGTTGCTT (site CTTTGGCCTAA)”, which “recombinant barcode read abundance (log10)” value is on record?
Its value is 0.305.

Which “recombinant barcode read abundance (log10)” value does the source give for “CCTTGTACTTGGGTTCTAACCTGTTGCCT (site CCTTGTACTAG)” here?
Its value is 0.035.

Which “recombinant barcode read abundance (log10)” value does the source give for “CCTTGTACTTGGGTTCTAACCTGTTGCCT (site CTTTGTACTAG)” here?
The value was 0.0491.

With “CCTTTACCTTGGGTTCTAACCTGTTGCCT (site ACTTTACCTAG)” as the sequence, how does the “recombinant barcode read abundance (log10)” value read?
The value was 0.136.

Which “recombinant barcode read abundance (log10)” value does the source give for “CCTTTACCTTGGGTTCTAACCTGTTGCCT (site CCTTTACCTAG)” here?
The value was 0.337.

For “CCTTTACCTTGGGTTCTAACCTGTTGCCT (site GCTTTACCTAG)”, which “recombinant barcode read abundance (log10)” value is on record?
Its value is 0.0546.

With “CCTTTACCTTGGGTTCTAACCTGTTGCCT (site TCTTTACCTAG)” as the sequence, how does the “recombinant barcode read abundance (log10)” value read?
Its value is 0.171.

For “CGAACATCTTGGGTTCTAACCTGTTGCTT (site ACCTACCCTCC)”, which “recombinant barcode read abundance (log10)” value is on record?
The value was 0.

For “CGAACATCTTGGGTTCTAACCTGTTGCTT (site CGAACATCTAA)”, which “recombinant barcode read abundance (log10)” value is on record?
Its value is 0.144.

For “CGAACGACTTGGGTTCTAACCTGTTGCCT (site CGAACGACTAA)”, which “recombinant barcode read abundance (log10)” value is on record?
Its value is 0.157.

Which “recombinant barcode read abundance (log10)” value does the source give for “CGAACGACTTGGGTTCTAACCTGTTGCCT (site CGAACGACTAG)” here?
The value was 0.259.

With “CGAACTACTTGGGTTCTAACCTGTTGCGT (site CGAACTACTAA)” as the sequence, how does the “recombinant barcode read abundance (log10)” value read?
Its value is 0.22.

For “CGAACTACTTGGGTTCTAACCTGTTGCGT (site CGAACTACTAC)”, which “recombinant barcode read abundance (log10)” value is on record?
Its value is 0.143.

Which “recombinant barcode read abundance (log10)” value does the source give for “CGAACTACTTGGGTTCTAACCTGTTGCGT (site CGAACTACTAG)” here?
The value was 0.109.

For “CGAACTACTTGGGTTCTAACCTGTTGCGT (site CGAACTACTAT)”, which “recombinant barcode read abundance (log10)” value is on record?
The value was 0.0569.
